In patent publication US8084003B2, “Ozone detecting device” (Nippon Telegraph and Telephone Corporation, priority 2006, dated 2011):
Like-named read-outs stand apart in the source and are kept apart here.

Experiments:
[1] = Deposition of the ultraviolet absorber as powder on the surface of the detecting device; assay type: physicochemical; details: absorber solution in 50 ml acetone or water, device manufactured and dried
[2] = 25° C.
[3] = Ultraviolet absorbing ability dissolved in a solvent (spectrum of transmitted light); assay type: physicochemical
Procedure: For example, when equal amounts of 2-hydroxy-4-methoxybenzophenone-5-sulfonic acid trihydrate and 4-dodecyloxy-2-hydroxybenzophenone are added, the ultraviolet absorbing ability of 4-dodecyloxy-2-hydroxybenzophenone is 1.25 times that of 2-hydroxy-4-methoxybenzophenone-5-sulfonic acid trihydrate on the average in a wavelength region of 300 to 400 nm.
Although the addition amount of 2-hydroxy-4-methoxybenzophenone-5-sulfonic acid trihydrate is 0.8 g and that of 4-dodecyloxy-2-hydroxybenzophenone is 0.5 g, i.e., there is a difference between the addition amounts, it is impossible to explain why the large difference is produced between the changes in absorbance by ultraviolet radiation when they are applied to ozone detecting devices. Note that the ultraviolet absorbing ability of an ultraviolet absorber is proportional to the addition amount. When dissolved in a solvent, therefore, the absorbing ability of 0.8 g of 2-hydroxy-4-methoxybenzophenone-5-sulfonic acid trihydrate is about 1.3 times that of 0.5 g of 4-dodecyloxy-2-hydroxybenzophenone.

[4] = Ultraviolet exposure test with Artificial Sunlight XC-100AF (no UV filter), reflected-light absorbance at about 618 nm; assay type: physicochemical; details: dye used instead of indigo carmine, with ultraviolet absorber
Procedure: An ultraviolet exposure test (experiment) in which the ozone detecting devices A to G described above are irradiated with ultraviolet light is conducted. In this test, the influence of ultraviolet light was evaluated by using Artificial Sunlight XC-100AF available from SERIC with no UV filter attached. The incident angle of illuminating light to each of ozone detecting devices A to G was set at 20°, the distance from the lower end of the artificial sunlight to each of ozone detecting devices A to G was set at 110 cm, and each of ozone detecting devices A to G was set in a central portion where the intensity of the illuminating light is highest.
Each of ozone detecting devices A to G described above was irradiated with ultraviolet light minute by minute for 1 to 5 min, and the reflected light from the ozone detecting device was measured with a spectrophotometer whenever the device was irradiated. The influence of ultraviolet light was evaluated by using the change in absorbance at a wavelength of about 618 nm as an index.

[5] = other water-soluble ultraviolet absorbers, temperature not given; cited from earlier work

Structure (SMILES) | deposition in the form of powder on the surface of the device [1] | resistance to ultraviolet light with other dyes [4] | other results
CC(C)(C)c1ccc(O)c(-n2nc3ccccc3n2)c1 [2-(2-hydroxy-5-t-butylphenyl)-2H-benzotriazole] | deposits in the form of powder | – | –
CCC(C)(C)c1cc(-n2nc3ccccc3n2)c(O)c(C(C)(C)CC)c1 [2-(3,5-di-t-pentyl-2-hydroxyphenyl)-2H-benzotriazole] | deposits in the form of powder | – | –
COc1cc(O)c(C(=O)c2ccccc2)cc1S(=O)(=O)[O-].[Na+] [2-hydroxy-4-methoxybenzophenone-5-sodium sulfonate] | none of these ultraviolet absorbers deposited in the form of powder | – | water solubility [2]: more than 2.5 wt %
COc1cc(O)c(C(=O)c2ccccc2)cc1S(=O)(=O)O.O.O.O [2-hydroxy-4-methoxybenzophenone-5-sulfonic acid trihydrate] | none of these ultraviolet absorbers deposited in the form of powder | – | water solubility [2]: 25 wt %; absorbing ability of 0.8 g relative to 0.5 g of 4-dodecyloxy-2-hydroxybenzophenone ([3]; dissolved in a solvent, scaled by addition amount): about 1.3 times
CCCCCCCCCCCCOc1ccc(C(=O)c2ccccc2)c(O)c1 [4-dodecyloxy-2-hydroxybenzophenone, reference compound] | deposits in the form of powder | – | ultraviolet absorbing ability relative to 2-hydroxy-4-methoxybenzophenone-5-sulfonic acid trihydrate ([3]; equal amounts added, average in wavelength region 300 to 400 nm): 1.25 times
O=S(=O)([O-])c1ccc(O)c(N=Nc2c(O)ccc3ccccc23)c1.[Na+] [Acid Alizarin Violet N] | – | possible to increase the resistance to ultraviolet light | –
O=C1c2ccccc2C(=O)c2c1ccc(O)c2O [alizarin] | – | possible to increase the resistance to ultraviolet light | –
O=C(/C=C/c1ccccc1)c1ccccc1 [chalcone] | – | possible to increase the resistance to ultraviolet light | –
Nc1ccc(C(=O)O)cc1 [p-aminobenzoic acid] | – | – | water solubility [5]: 0.4 wt %
O=C(Oc1ccccc1)c1ccccc1O [phenyl salicylate] | – | – | water solubility [5]: 0.05 wt %
